The Kinase Knowledgebase extract (Sharma et al. 2016)

Biological target: PIK3CG (human) (UniProt P48736)
Assay: Assessment of PIK3CG Kinase Activity

Sequence of PIK3CG (human) (P48736 whole entry, looked up): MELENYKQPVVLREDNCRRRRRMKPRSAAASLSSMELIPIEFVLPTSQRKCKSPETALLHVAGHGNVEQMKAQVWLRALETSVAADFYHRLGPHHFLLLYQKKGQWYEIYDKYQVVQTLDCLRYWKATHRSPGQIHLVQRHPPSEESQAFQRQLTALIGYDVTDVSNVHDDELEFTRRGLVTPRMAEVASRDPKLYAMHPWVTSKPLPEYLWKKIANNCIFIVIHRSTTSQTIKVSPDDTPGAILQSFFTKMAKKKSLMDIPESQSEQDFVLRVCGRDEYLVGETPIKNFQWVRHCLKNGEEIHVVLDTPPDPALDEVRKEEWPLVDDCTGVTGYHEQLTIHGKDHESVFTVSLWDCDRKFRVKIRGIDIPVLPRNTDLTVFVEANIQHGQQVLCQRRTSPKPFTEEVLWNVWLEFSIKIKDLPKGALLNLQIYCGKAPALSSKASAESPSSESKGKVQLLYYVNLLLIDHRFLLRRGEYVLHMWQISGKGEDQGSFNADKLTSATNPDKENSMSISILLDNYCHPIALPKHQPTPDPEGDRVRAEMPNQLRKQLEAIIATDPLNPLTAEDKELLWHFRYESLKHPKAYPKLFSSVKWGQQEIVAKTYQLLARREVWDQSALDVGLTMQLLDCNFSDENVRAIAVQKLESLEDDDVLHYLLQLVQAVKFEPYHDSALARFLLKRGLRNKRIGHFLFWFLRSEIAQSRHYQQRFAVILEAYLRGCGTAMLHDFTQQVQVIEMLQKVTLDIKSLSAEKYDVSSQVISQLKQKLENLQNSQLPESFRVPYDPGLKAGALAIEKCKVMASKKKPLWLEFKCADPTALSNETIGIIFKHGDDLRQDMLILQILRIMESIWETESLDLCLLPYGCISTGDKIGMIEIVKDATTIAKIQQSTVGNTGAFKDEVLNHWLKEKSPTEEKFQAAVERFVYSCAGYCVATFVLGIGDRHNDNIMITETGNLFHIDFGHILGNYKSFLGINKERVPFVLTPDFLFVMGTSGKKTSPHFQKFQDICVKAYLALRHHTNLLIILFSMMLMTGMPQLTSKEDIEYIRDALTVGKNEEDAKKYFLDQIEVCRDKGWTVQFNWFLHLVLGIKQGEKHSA

Cc1nc(NC(=O)NCCOCC2CC2)sc1C#Cc1cc(Cl)ncc1F showed a Ki of less than 50 nM.
Work on Cc1nc(NC(=O)NCCOCC2CC2)sc1C#Cc1cccnc1 yielded a Ki of less than 50 nM.
Cc1nc(NC(=O)NCCOCC2CC2)sc1C#Cc1ccnn1C gave a Ki of 50 to 250 nM.
For CCc1cnc(CCNC(=O)Nc2nc(C)c(C#Cc3ccncc3)s2)s1, the Ki was less than 50 nM.
CCc1cnc(CCNC(=O)Nc2nc(C)c(C#Cc3cncc(OC)c3)s2)s1 was tested, and the Ki was less than 50 nM.
Cc1nc(NC(=O)NCCC(=O)OC(C)(C)C)sc1C#Cc1ccccc1 was tested, and the Ki was less than 50 nM.
With Cc1nc(NC(=O)NCCn2cc(Cl)cn2)sc1C#Cc1ccncc1 the Ki was less than 50 nM.
With Cc1nc(NC(=O)NC2COc3ccccc3C2)sc1C#Cc1ccncc1 (centres undefined) the Ki was 50 to 250 nM.
Molecule COc1cc(C#Cc2sc(NC(=O)NCCOCC3CC3)nc2C)cnc1Cl has a Ki of 50 to 250 nM.
With Cc1nc(NC(=O)NCCOc2ccccc2F)sc1C#Cc1ccncc1 the Ki was less than 50 nM.
Cc1nc(NC(=O)NCCc2ccccn2)sc1C#Cc1ccncc1 gave a Ki of less than 50 nM.
Molecule Cc1nc(NC(=O)NCCC(=O)NCC(F)(F)F)sc1C#Cc1ccncc1 has a Ki of less than 50 nM.
Cc1nc(NC(=O)NCC2CCCO2)sc1C#Cc1ccncc1 (centres undefined) gave a Ki of less than 50 nM.
Cc1nc(NC(=O)NCCc2cn(CC(F)F)cn2)sc1C#Cc1ccccc1 showed a Ki of 50 to 250 nM.
In the case of Cc1nc(NC(=O)[C@@H]2CCC(=O)N2)sc1C#Cc1ccncc1, the Ki is reported as 50 to 250 nM.
With Cc1nc(NC(=O)CCCC(=O)NC(C)(C)C)sc1C#Cc1ccncc1 the Ki was 50 to 250 nM.
Cc1nc(NC(=O)NCCc2cn(C(C)C)cn2)sc1C#Cc1ccncc1 showed a Ki of less than 50 nM.
Molecule CCOC(=O)CCCNC(=O)Nc1nc(C)c(C#Cc2ccncc2)s1 has a Ki of less than 50 nM.
Work on Cc1nc(NC(=O)NCCO)sc1C#Cc1ccncc1 yielded a Ki of less than 50 nM.
Cc1nc(NC(=O)NCCOc2ccccc2)sc1C#Cc1ccncc1 was tested, and the Ki was less than 50 nM.
With Cc1nc(NC(=O)N2CCC(OCc3ccccc3)C2)sc1C#Cc1ccncc1 (centres undefined) the Ki was 50 to 250 nM.
For COc1ccc(C#Cc2sc(NC(=O)NCCOCC3CC3)nc2C)cn1, the Ki was 50 to 250 nM.
Cc1nc(NC(=O)NCCOCC2CC2)sc1C#Cc1cc(F)ncc1Cl was tested, and the Ki was less than 50 nM.
For CCc1ccc(OCCNC(=O)Nc2nc(C)c(C#Cc3ccncc3)s2)cc1, the Ki was 50 to 250 nM.
Cc1nc(NC(=O)NCC2Cc3ccccc3O2)sc1C#Cc1ccncc1 (centres undefined) gave a Ki of less than 50 nM.
Molecule Cc1nc(NC(=O)NCCC(=O)N(C)CC(F)(F)F)sc1C#Cc1ccccc1 has a Ki of 50 to 250 nM.
Molecule Cc1nc(NC(=O)NCCOCC2CC2)sc1C#Cc1cccnc1Cl has a Ki of less than 50 nM.
With Cc1nc(NC(=O)NCC(F)(F)F)sc1C#Cc1ccncc1 the Ki was 50 to 250 nM.
With Cc1nc(NC(=O)NCCOc2cccnc2)sc1C#Cc1ccnc(Cl)c1 the Ki was 50 to 250 nM.
Work on Cc1nc(NC(=O)NCCOCC2CC2)sc1C#Cc1cnc(Cl)c(F)c1 yielded a Ki of 50 to 250 nM.
Molecule CC(=O)Nc1nc(C)c(C#Cc2cccc(F)c2)s1 has a Ki of 50 to 250 nM.
With COc1cc(C#Cc2sc(NC(=O)NCCOc3ccncc3)nc2C)cnc1OC the Ki was less than 50 nM.
CCOC(=O)CCNC(=O)Nc1nc(C)c(C#Cc2ccncc2)s1 gave a Ki of less than 50 nM.
In the case of Cc1nc(NC(=O)NCCOCC2CC2)sc1C#Cc1cnc2ncccc2c1, the Ki is reported as less than 50 nM.
For Cc1nc(NC(=O)NCCC(=O)NC(C)(C)C)sc1C#Cc1ccncc1, the Ki was less than 50 nM.
Cc1nc(NC(=O)NCCc2cn(CC(F)F)cn2)sc1C#Cc1ccccc1Cl showed a Ki of 50 to 250 nM.
COc1cccc(C#Cc2sc(NC(=O)NCCOCC3CC3)nc2C)c1 showed a Ki of 50 to 250 nM.
Molecule COc1ccc(C#Cc2sc(NC(=O)NC[C@H](C)C(=O)NC(C)(C)C)nc2C)cn1 has a Ki of less than 50 nM.
CC(=O)Nc1nc(C)c(C#Cc2ccc(N)cc2)s1 was tested, and the Ki was 50 to 250 nM.
Cc1nc(NC(=O)NCCOc2ccccc2)sc1C#Cc1cccnc1 gave a Ki of less than 50 nM.
With CCCO[C@@H](C)CNC(=O)Nc1nc(C)c(C#Cc2cncc(OC)c2)s1 the Ki was less than 50 nM.
For COc1cc(C#Cc2sc(NC(=O)NCCOCC3CC3)nc2C)cc(OC)c1, the Ki was 50 to 250 nM.
Molecule Cc1ccc(OCCNC(=O)Nc2nc(C)c(C#Cc3ccncc3)s2)cc1 has a Ki of less than 50 nM.
COc1ncc(C#Cc2sc(NC(=O)NCCOCC3CC3)nc2C)cn1 showed a Ki of less than 50 nM.
For Cc1nc(NC(=O)CCCC(=O)NCC(F)(F)F)sc1C#Cc1ccncc1, the Ki was 50 to 250 nM.
Work on Cc1nc(NC(=O)NCCn2cnc(C(F)(F)F)c2)sc1C#Cc1ccncc1 yielded a Ki of 50 to 250 nM.
Work on Cc1nc(NC(=O)NCCOc2cccc(F)c2)sc1C#Cc1ccncc1 yielded a Ki of less than 50 nM.
Cc1nc(NC(=O)NCCC2COCCO2)sc1C#Cc1ccncc1 (centres undefined) showed a Ki of less than 50 nM.
Molecule Cc1nc(NC(=O)NCCOCC2CC2)sc1C#Cc1ccn(C)c(=O)c1 has a Ki of 50 to 250 nM.
CC(=O)Nc1nc(C)c(C#Cc2ccsc2)s1 showed a Ki of 50 to 250 nM.
COc1ccc(C#Cc2sc(NC(=O)NC[C@H](C)OCC3CC3)nc2C)cn1 gave a Ki of less than 50 nM.
In the case of COC(=O)c1ccn2cc(CCNC(=O)Nc3nc(C)c(C#Cc4ccncc4)s3)nc2c1, the Ki is reported as 50 to 250 nM.
In the case of COc1ccc(C#Cc2sc(NC(C)=O)nc2C)cc1, the Ki is reported as 50 to 250 nM.
For Cc1nc(NC(=O)NCCC(=O)NCC(F)(F)F)sc1C#Cc1ccccc1, the Ki was 50 to 250 nM.
With Cc1nc(NC(=O)NCCOCC2CC2)sc1C#Cc1cnc2ccccc2c1 the Ki was 50 to 250 nM.
CCc1ccc(CCNC(=O)Nc2nc(C)c(C#Cc3ccncc3)s2)nc1 showed a Ki of less than 50 nM.
For Cc1nc(NC(=O)NCCn2nnc3ccccc32)sc1C#Cc1ccncc1, the Ki was 50 to 250 nM.
For Cc1nc(NC(=O)CCC(=O)OC(C)(C)C)sc1C#Cc1ccncc1, the Ki was 50 to 250 nM.
CC(=O)Nc1nc(C)c(C#Cc2cncn2C)s1 was tested, and the Ki was 50 to 250 nM.
Work on Cc1nc(NC(=O)NCC[S+](C)[O-])sc1C#Cc1ccncc1 (centres undefined) yielded a Ki of less than 50 nM.
For COCCNC(=O)Nc1nc(C)c(C#Cc2ccncc2)s1, the Ki was less than 50 nM.
Cc1nc(NC(=O)NC[C@H](C)O)sc1C#Cc1ccncc1 was tested, and the Ki was less than 50 nM.
COc1ccc(C#Cc2sc(NC(=O)NCCOCC3CC3)nc2C)cc1OC was tested, and the Ki was less than 50 nM.
Cc1nc(NC(=O)NCCCOCC2CC2)sc1C#Cc1ccncc1 showed a Ki of 50 to 250 nM.
